Where a SMILES comes first, the peptide text is derived from it. Bridges are numbered along the chain shown (N, C = ends).
Experiments:
[1] = test system: human cell lines; assay: MTT cytotoxic activity assay, IC50 summarised over cell lines; format: cell-based; details: all human cells tested; MTT 48 h; read-out: IC50 range on human cancer, transformed, and normal cell lines
Experimental: Cytotoxic activities of PM III, its isoforms, and tachyplesins against seven human cell lines were evaluated. Four cancer (HL-60 acute promyelocytic leukemia, HeLa cervix adenocarcinoma, SK-BR-3 breast adenocarcinoma, A549 lung carcinoma), one transformed (HEK 293T transformed human embryonic kidney), and two normal human cell lines (HEF human embryonic fibroblasts and NHA normal human astrocytes) were used for these experiments. Cytotoxicity was measured by incubating the cells with serial dilutions of PM I, PM II, PM III, TP I, TP II, or TP III samples followed by MTT assay after 48 h. The half-maximal inhibitory concentrations (IC50) were measured as the peptide concentration at which cell viability was reduced by 50% in comparison to untreated cells (Table 3).
The colorimetric 3-(4,5-dimethylthiazol-2-yl)-2,5-diphenyltetrazolium bromide (MTT) dye reduction assay was used to determine the cytotoxicity of the polyphemusins and tachyplesins. Cells (3 × 10^3–6 × 10^3 per well) were placed into 96-well plates in Dulbecco’s modified Eagle’s medium (DMEM/F12) supplemented with 10% fetal bovine serum (FBS). […] The absorbance at 570 nm was measured by a microplate reader (Eppendorf, Hamburg, Germany).

[2] = test system: HL-60 cells; assay: Annexin V-FITC/propidium iodide double staining and flow cytometry; format: cell-based, human; details: for double-stained cells, Q2-2 (AV+PI+, late apoptotic/necrotic): 4 h
Description: To further investigate the effect of PM III on human cells, we performed annexin V-FITC/propidium iodide double staining with subsequent flow cytometric analysis. Annexin V-FITC binds to phosphatidylserine, which is exposed on the outer leaflet of the cellular plasma membrane at the initial stages of apoptosis, whereas propidium iodide (PI) preferentially stains nuclei of dead cells. Therefore, a combination of annexin V-FITC and PI assays allows differentiation between early apoptotic and late apoptotic/necrotic cell populations. PM III was used at two final concentrations of 2.5 and 5 μM. In order to elucidate the predominant mechanism of the PM III action, we applied a widely used caspase inhibitor, Z-VAD-FMK [23].
Cell death analysis with fluorescein isothiocyanate conjugated annexin V (annexin V-FITC)/propidium iodide double staining and dead cells counting with flow cytometry were performed 4 h after addition of polyphemusin III up to a final concentration of 2.5 or 5 μM. The Annexin V-FITC Apoptosis Detection Kit (BD Biosciences, Franklin Lakes, NJ, USA) was used according to the manufacturer’s protocol on a NovoCyte flow cytometer (ACEA Biosciences, San Diego, CA, USA). Each experiment was performed in triplicate. The apoptosis inducer camptothecin (Sigma-Aldrich, St. Louis, MO, USA) and the general caspase inhibitor, Z-VAD-FMK (BD Biosciences, Franklin Lakes, NJ, USA), were used. All flow cytometry experiments were performed twice.

Structure (SMILES): CC(C)[C@@H]1NC(=O)[C@H](CCCNC(=N)N)NC(=O)[C@H](Cc2ccccc2)NC(=O)[C@@H](NC(=O)CNC(=O)[C@H](CCCNC(=N)N)NC(=O)[C@@H](N)CCCNC(=N)N)CSSC[C@@H](C(=O)N[C@@H](CCCNC(=N)N)C(=O)O)NC(=O)[C@H](CCCNC(=N)N)NC(=O)[C@H](CCC(N)=O)NC(=O)[C@H](Cc2ccccc2)NC(=O)[C@@H]2CSSC[C@H](NC1=O)C(=O)N[C@@H](Cc1ccc(O)cc1)C(=O)N[C@@H](CCCNC(=N)N)C(=O)NCC(=O)N[C@@H](Cc1ccccc1)C(=O)N2 [PM III, polyphemusin III] (H-RRGCFRVCYRGFCFQRCR-OH; disulfide 4-17, 8-13 (inferred); N-terminus assumed)
- IC50 [1]: < 10 µM
- double-stained cells, Q2-2 (AV+PI+, late apoptotic/necrotic) ([2]; HL-60, 2.5 µM, 50 μM Z-VAD-FMK added): > 30%
- double-stained cells, Q2-2 (AV+PI+, late apoptotic/necrotic) ([2]; HL-60, 2.5 µM, no Z-VAD-FMK): > 40%
- double-stained cells, Q2-2 (AV+PI+, late apoptotic/necrotic) ([2]; HL-60, 5 µM, 50 μM Z-VAD-FMK added): > 70%
- double-stained cells, Q2-2 (AV+PI+, late apoptotic/necrotic) ([2]; HL-60, 5 µM, no Z-VAD-FMK): > 80%
- influence of the caspase inhibitor Z-VAD-FMK on the effect of the substance (annexin V-FITC/PI staining) ([2]; HL-60, 4 h of incubation, 50 μM Z-VAD-FMK): almost not affected

— article PMC6315362, “Cytotoxic Potential of the Novel Horseshoe Crab Peptide Polyphemusin III” (Marine Drugs, 2018)
